Laboratory results from paper PMC10381533, “Inhibitory Effects of the Fungal Pigment Rubiginosin C on Hyphal and Biofilm Formation in Candida albicans and Candida auris” (Journal of Fungi, 2023).
“And” between values parts separate entries of the source, which are not always exact repeats. Identical values can stand only once.

Experiments:
[1] = system: human endocervical adenocarcinoma KB-3-1 [ACC 158] cells; assay: MTT cytotoxicity assay, KB-3-1; assay type: cell-based; conditions: KB-3-1, MTT, tested 37 μg/mL–0.63 ng/mL, read-out: IC50
Experimental: (§1) Cytotoxic effects were evaluated on human endocervical adenocarcinoma KB-3-1 [ACC 158] cells and mouse fibroblasts L929 [ACC 2] upon treatment with Rub C, W, and Rut A and B within the concentration range of 37 μg/mL–0.63 ng/mL. The half-maximum inhibitory concentrations (IC50) were determined by standard MTT assays as reported previously (see the Supplementary Material for detailed information). The IC50 values of Rub A and Z have currently been reported. […]
(§2) KB-3-1 (ACC 158) cervix carcinoma as well as L929 (ACC 2) mouse fibroblasts were cultured under standard cell culture conditions (37 °C, 5% CO2, 95% humidified atmosphere). The cells were maintained in high glucose DMEM containing 10% fetal bovine serum and 100 U/mL penicillin and streptomycin (Gibco, Thermo Fisher Scientific, Waltham, USA). Cell lines were serially passaged after trypsinization, using 0.05% trypsin / 0.02% EDTA solution. The cultures were routinely monitored for potential contamination, and only mycoplasma free cultures were used. The test compounds were investigated for their anti-proliferative effect on cell lines, using the 3-(4,5-dimethylthiazol-2-yl)-2,5-diphenyltetrazolium bromide (MTT) based cell viability assay. Cells were seeded in 96 well microtiter plates (Sarstedt, Germany) with a cell density of 0.05 * 10^6 cells per mL and 100 μL per well and were incubated for 24 h. […]
(§3) Absorbances at 570 nm and 630 nm were measured with a plate reader (Tecan, Männedorf, canton of Zürich, Switzerland). Background absorbance (630 nm) was subtracted from the formazan signal (570 nm). The resulting absorbance is directly proportional to the amount of viable cells. The control was normalized to 100% viable cells, and the viability of cells treated with the test compounds was calculated accordingly. IC50 values were calculated based on a sigmoidal fit model using GraphPad Prism. Means and SD were calculated from at least four independent experiments. […]

[2] = system: mouse fibroblasts L929 [ACC 2]; assay: MTT cytotoxicity assay, L929; assay type: cell-based; conditions: MTT, tested 37 μg/mL–0.63 ng/mL, read-out: IC50
Experimental: as §1, §2, §3

[3] = system: murine fibroblasts (L929) and human endocervical adenocarcinoma cells (KB-3-1); assay: MTT cytotoxicity, range stated over both cell lines; assay type: cell-based; conditions: range over Rut A and Rut B and over L929 and KB-3-1
Experimental: as §1
KB-3-1 (ACC 158) cervix carcinoma as well as L929 (ACC 2) mouse fibroblasts were cultured under standard cell culture conditions (37 °C, 5% CO2, 95% humidified atmosphere). […] The cultures were routinely monitored for potential contamination, and only mycoplasma free cultures were used. […]
as §3

[4] = system: Staphylococcus aureus (DSM 1104) biofilm; assay: Crystal violet biofilm inhibition assay, S. aureus; assay type: cell-based; conditions: for inhibitory effects against the biofilm formation of S. aureus: CV assay; for inhibition at 2 µg/mL / inhibition at 3.9 µg/mL / inhibition at 7.8 µg/mL / inhibition at 15.6 µg/mL / inhibition at 31.3 µg/mL / inhibition at 62.5 µg/mL / inhibition at 125 µg/mL / inhibition at 250 µg/mL: Staphylococcus aureus, DSM1104, read-out: inhibition of S. aureus biofilm formation compared to solvent control (= 0%)
Experimental: Selected azaphilones Rub C and W, Rut A and B were tested against the formation of biofilms in Staphylococcus aureus (DSM 1104). S. aureus DSM 1104 from a −20 °C stock was precultured in 25 mL CASO (casein-peptone soymeal-peptone) medium in a 250 mL flask at 37 °C with 100 rpm for 20 h. The OD600 of the culture solution was adjusted to 0.001 McFarland standard and incubated in 96-well microtiter plates (TPP tissue culture ref.no 92196, Switzerland) for 18 h at 37 °C with 150 μL of serially diluted test […]
(§4) compounds (250–2 μg/mL) in CASO with 4% glucose broth. The inhibition of biofilm formation was evaluated by staining with 150 μL of 0.1% crystal violet (CV; Thermo Fisher) following previously established protocols. In the next step, the supernatant of the 96-well plate was discarded and the wells were rinsed once with PBS buffer. The remaining biofilms were stained at room temperature for 15 min, rinsed three times with PBS buffer, and finally dissolved in 150 μL ethanol (95%). The absorbance of the resulting solution at 530 nm was quantified using a plate reader (Synergy 2, BioTek). Methanol (2.5%) and microporenic acid A (MAA) (250–2 μg/mL) were used as negative and positive controls. Standard deviations (SD) of two repeats with duplicates were 10% or less. […]
μg/mL) were used as negative control and positive control, respectively. The assay was conducted for […]
(§5) Table S2: Selected azaphilones were tested against the formation of biofilm of S. aureus, P. aeruginosa as well as C. auris and dispersal effect on preformed biofilm of S. aureus compared to solvent control (= 0%), respectively. SDs are shown as ±SD.
(§6) Compounds Strains Concentrations [µg/mL] […]

[5] = system: preformed S. aureus biofilm; assay: Dispersal effect on preformed S. aureus biofilm; assay type: cell-based, Staphylococcus aureus; conditions: 250 µg/mL
Experimental: as §4, §5, §6

[6] = system: Pseudomonas aeruginosa (PA 14) DSM 19882 biofilm; assay: Crystal violet biofilm inhibition assay, P. aeruginosa; assay type: cell-based; conditions: Pseudomonas aeruginosa, DSM19882, assay conducted once, read-out: inhibition of P. aeruginosa biofilm formation compared to solvent control (= 0%)
Experimental: Selected azaphilones Rub C and W, Rut A and B were tested against the formation of biofilms in Pseudomonas aeruginosa (PA 14) DSM 19882. Bacterial strain was precultured in 25 mL LB medium (Luria - Bertani Broth) with a 250 mL flask at 37 °C with shaking 100 rpm overnight. The turbidity of the baterial solution was measured and diluted to match the turbidity of a 0.1 McFarland standard in M63 medium, which is supplemented with magnesium sulfate, glucose and casamino acids as previously described. The compounds were added into 150 μL bacterial solution at the concentration (250–2 μg/mL) then the solution was added in U-bottom 96 well plate (Falcon ref.no 351177, Thermo Fisher Scientific). The plates were incubated at 37 °C at 150 rpm for 24 h and biofilms were established at the air liquid interface. The plates were rinsed once by using PBS buffer, the biofilms were stained by 150 μL 0.1% CV at room temperature for 15 min and then rinsed two times by using PBS buffer. The absorbance was quantified with the plate reader (Synergy 2, BioTek) at 550 nm using ethanol (95%). Methanol (2.5 %) and myxovalargin A (250 –2 μg/mL) were used as negative control and positive control, respectively. The assay was conducted for […]
as §5, §6

CC(=O)OC/C=C/C1=CC2=C(CO1)C(=O)[C@@](C)(OC(=O)c1c(C)cc(O)cc1O)C(=O)/C2=C\C=C\C1=CC2=C(CO1)C(=O)[C@@](C)(OC(=O)c1c(C)cc(O)cc1O)[C@@H](O)C2 [Rut B, rutilin B]
IC50 [1]: 1500 nM
IC50 [2]: 2200 nM
IC50 [3]: 1.1 µM to 2.2 µM and 0.9 µg/mL to 1.8 µg/mL
inhibitory effects against the biofilm formation of S. aureus [4]: moderate inhibitory effects
inhibition at 2 µg/mL [4]: 86 ± 2%
inhibition at 3.9 µg/mL [4]: 88 ± 1%
inhibition at 7.8 µg/mL [4]: 88 ± 1%
inhibition at 15.6 µg/mL [4]: 87 ± 2%
inhibition at 31.3 µg/mL [4]: 86 ± 2%
inhibition at 62.5 µg/mL [4]: 86 ± 2%
inhibition at 125 µg/mL [4]: 85 ± 2%
inhibition at 250 µg/mL [4]: 84 ± 2%
dispersal effect on preformed biofilm of S. aureus compared to solvent control (= 0%) [5]: 51 ±8%
inhibition at 2 µg/mL [6]: < 20%
inhibition at 3.9 µg/mL [6]: < 20%
inhibition at 7.8 µg/mL [6]: < 20%
inhibition at 15.6 µg/mL [6]: < 20%
inhibition at 31.3 µg/mL [6]: < 20%
inhibition at 62.5 µg/mL [6]: < 20%
inhibition at 125 µg/mL [6]: < 20%
inhibition at 250 µg/mL [6]: < 20%

CC(=O)OC/C=C/C1=CC2=C(CO1)C(=O)[C@@](C)(OC(=O)c1c(C)cc(O)cc1O)C(=O)/C2=C\C=C\C1=CC2=C(CO1)C(=O)[C@@](C)(O)[C@@H](OC(=O)c1c(C)cc(O)cc1O)C2 [Rut A, rutilin A]
IC50 [1]: 1100 nM
IC50 [2]: 1200 nM
IC50 [3]: 1.1 µM to 2.2 µM and 0.9 µg/mL to 1.8 µg/mL
inhibitory effects against the biofilm formation of S. aureus [4]: moderate inhibitory effects
inhibition at 2 µg/mL [4]: < 20%
inhibition at 3.9 µg/mL [4]: < 20%
inhibition at 7.8 µg/mL [4]: < 20%
inhibition at 15.6 µg/mL [4]: 21 ± 2%
inhibition at 31.3 µg/mL [4]: 51 ± 10%
inhibition at 62.5 µg/mL [4]: 51 ± 10%
inhibition at 125 µg/mL [4]: 55 ± 9%
inhibition at 250 µg/mL [4]: 60 ± 6%
inhibition at 2 µg/mL [6]: < 20%
inhibition at 3.9 µg/mL [6]: < 20%
inhibition at 7.8 µg/mL [6]: < 20%
inhibition at 15.6 µg/mL [6]: < 20%
inhibition at 31.3 µg/mL [6]: < 20%
inhibition at 62.5 µg/mL [6]: < 20%
inhibition at 125 µg/mL [6]: < 20%
inhibition at 250 µg/mL [6]: < 20%
